What was measured:
P. juglandis = assay: GC-EAD (electroantennal detection) of volatile extract; parameters: species or system Pityophthorus juglandis; settings: extract of J. hindsii with male and female P. juglandis feeding 45 hr
Experimental: Gas Chromatography-Electroantennal Detection (GC-EAD). GC-EAD analysis was performed on the extract of walnut (Juglans hindsii) with male and female P. juglandis feeding for 45 hr (pentane extract (7)). The sample was analyzed with an HP5890 GC with the following conditions: DB-5 column 30 m×0.32, oven 50° C. for 1 min, temperature programmed at 20° C./min to a final temperature of 280° C.

[1] = system: walnut twig beetle (WTB), Pityophthorus juglandis; assay: Example 1 Field Test 2: flight response to X with and without racemic conophthorin; format: in vivo; settings: tested as a racemic mixture
Experimental: (§1) Field Bioassays of Semiochemicals. To test the attractiveness of the various compounds of interest, some of the commercially available materials listed above were poured into 15 ml capped polyethylene bottles (Product #s A1-1050/002, A1-1055/002; Contech Enterprises Inc., Delta, British Columbia, Canada) and attached to yellow sticky card traps (Trécé, Adair, OK). In addition, synthesized (+) and (−) enantiomers of trans-conophthorin were tested in 400 μl polyethylene Eppendorf microcentrifuge tubes. Four field studies were conducted (Table 2) that tested the flight responses to: 3-methyl-2-buten-l-ol and related isomers (Field Test 1); 3-methyl-2-buten-l-ol with and without racemic trans-conophthorin (Field Test 2); 3-methyl-2-buten-l-ol with and without the purified enantiomers of trans-conophthorin (Field Test 3); and 3-methyl-2-buten-l-ol with and without racemic chalcogran (Field Test 4).
(§2) Statistical Analysis. Field Tests 1-4 were each analyzed for treatment effect by using Friedman's non-parametric analysis of variance. (See Zar, J. H. 2010. Biostatistical Analysis, 5th Ed. Pearson Prentice Hall, New Jersey). Males and females were subjected to separate analyses. All treatments within experiments yielding a significant treatment effect were compared by using an a posteriori Nemenyi test (Zar 2010) with experimentwise α=0.05. Sex ratios of responding WTB were determined using Cochran's method for unbiased sampling (See Cochran, W. G. 1977. Sampling Techniques, 3rd ed. John Wiley, New York), with 95% confidence intervals calculated by using the Clopper-Pearson method. (See Zar, J. H. 2010. Biostatistical Analysis, 5th Ed. Pearson Prentice Hall, New Jersey).

WTB [2] = assay: Example 2 Field Test 3: X and racemic trans-pityol; format: in vivo, Pityophthorus juglandis
Experimental: Finally, a flight bioassay of the effect of the compound racemic trans-“pityol” [2-(1-hydroxy-1-methylethyl)-5-methyltetrahydrofuran] was conducted in late summer/early fall at Wolfskill Experimental Orchards. Pityol is a component of the aggregation pheromone of conifer-infesting Pityophthorus species. The response of WTB to racemic trans-pityol (formulated in a polyvinylchloride plastic bubble cap release device, 40 mg load, 0.2 mg/d release rate at 20° C., product #300000272, Contech Enterprises) and pityol in combination with 3-methyl-2-buten-1-ol (release rate 15-80 mg/d, LDPE plastic pouch Contech) was tested (Table 3, Field Test 3). The four treatments were replicated in three spatial blocks and the treatments were re-randomized among the four trap stations in a block each time the traps were emptied (nearly every day).
(§3) Statistical Analyses. Analysis of treatment effects for the pouch vs. bottle experiment was done by using a sign test. (See Zar, J. H. 2010. Biostatistical Analysis. 5th ed. Pearson Prentice Hall, Englewood Cliffs, N.J.) The other four experiments were analyzed for treatment effect by using Friedman's non-parametric analysis of variance. Id. In all experiments, males and females were analyzed separately. All treatments within experiments yielding a significant treatment effect were compared by using an a posteriori Nemenyi test with experimentwise α=0.05. Id. For all experiments, differences among proportions of female WTB responding to treatments were analyzed by comparing 95% confidence intervals determined with the Clopper-Pearson method. Id.

[3] = system: walnut twig beetle (WTB), Pityophthorus juglandis; assay: Example 1 Field Test 3: flight response to X with and without enantiomers of trans-conophthorin; format: in vivo; settings: enantiomers of Y tested separately
Experimental: as §1, §2

[4] = system: walnut twig beetle (WTB), Pityophthorus juglandis; assay: Example 1 Field Test 1: flight response to X and related isomers, yellow sticky card traps; format: in vivo; settings: Davis CA; for trap catches, female WTB / trap catches, male WTB: about three months in summer, N=21
Experimental: Field Bioassays of Semiochemicals. […] Contech Enterprises Inc., Delta, British Columbia, Canada) and attached to yellow sticky card traps ([…], OK). In addition, synthesized (+) and (-) enantiomers of trans-conophthorin were tested in 400 μl polyethylene Eppendorf microcentrifuge tubes. Four field studies were conducted (Table 2) that tested the flight responses to: 3-methyl-2-buten-l-ol and related isomers (Field Test 1); 3-methyl-2-buten-l-ol with and without racemic trans-conophthorin (Field Test 2); 3-methyl-2-buten-l-ol with and without the purified enantiomers of trans-conophthorin (Field Test 3); and 3-methyl-2-buten-l-ol with and without racemic chalcogran (Field Test 4). [table] Statistical Analysis. Field Tests 1-4 were each analyzed for treatment effect by using Friedman's non-parametric analysis of variance. (See Zar, J. H. 2010. Biostatistical Analysis, 5th Ed. Pearson Prentice Hall, New Jersey). Males and females were subjected to separate analyses. All treatments within experiments yielding a significant treatment effect were compared by using an a posteriori Nemenyi test (Zar 2010) with experimentwise α=0.05. Sex ratios of responding WTB were determined using Cochran's method for unbiased sampling (See Cochran, W. G. 1977. Sampling Techniques, 3rd ed. John Wiley, New York), with 95% confidence intervals calculated by using the Clopper-Pearson method. (See Zar, J. H. 2010. Biostatistical Analysis, 5th Ed. Pearson Prentice Hall, New Jersey).

WTB [5] = assay: Example 2 Field Test 1: X in combination with X-3 and X-2; format: in vivo, Pityophthorus juglandis; settings: alone or in combination, at the release rates tested
Experimental: as §3, with “Field Bioassays of 3-methyl-2-buten-1-ol in combination with other compounds. The flight response of WTB to 3-methyl-2-buten-1-ol in combination with other compounds was also tested. […] Louis, Mo. […] The five treatments were replicated in three spatial blocks and the treatments were re-randomized among the five trap stations in a block each time the traps were emptied (nearly every day). [table] Statistical” for “Statistical”

[6] = system: walnut twig beetle (WTB), Pityophthorus juglandis; assay: Example 1 Field Test 4: flight response to X with and without racemic chalcogran; format: in vivo
Experimental: as §1, §2

[7] = 4-unit Lindgren funnel traps, X 15-80 mg/d, pityol 0.2 mg/d, N=93
[8] = yellow sticky card traps, about one month late summer, Davis CA, N=13

SMILES: CC1CCCC2(CCCO2)O1 (racemic) [Y, 7-methyl-1,6-dioxaspiro[4,5]decane]
- antennal activity by GC-EAD (P. juglandis): antenally active
- effect on flight response [1]: interruptive or repellent

SMILES: CC1CCC(C(C)(C)O)O1 (racemic) [pityol, 2-(1-hydroxy-1-methylethyl)-5-methyltetrahydrofuran]
- proportion of females responding (WTB [2]; 4-unit Lindgren funnel traps): 0.24
- trap catches, female WTB (WTB [2]; [7]): 11
- trap catches, male WTB (WTB [2]; [7]): 32
- effect on response to 3-methyl-2-buten-1-ol (WTB [2]; at the release rates tested): did not significantly affect the response to 3-methyl-2-buten-1-ol

SMILES: CC1CCCC2(CCCO2)O1 (single isomer, unassigned; (-)) [(−)-Y, (−)-trans-conophthorin]
- effect on flight response [3]: behaviorally active component

SMILES: CC(C)=CC=O [X-1, 3-methyl-2-butenal]
- proportion of females responding [4]: 0.65
- trap catches, female WTB [4]: 20
- trap catches, male WTB [4]: 11

SMILES: CC(C)CCO [X-2, 3-methyl-1-butanol]
- proportion of females responding [4]: 0.48
- trap catches, female WTB [4]: 21
- trap catches, male WTB [4]: 23
- effect on flight response to 3-methyl-2-buten-1-ol (WTB [5]): did not significantly affect the flight response of WTB

SMILES: C=C(C)CCO [X-3, 3-methyl-3-buten-1-ol]
- proportion of females responding [4]: 0.33
- trap catches, female WTB [4]: 2
- trap catches, male WTB [4]: 4
- effect on flight response to 3-methyl-2-buten-1-ol (WTB [5]): did not significantly affect the flight response of WTB

SMILES: CCC1CCC2(CCCO2)O1 (stereo not shown) [Z, 2-ethyl-1,6,-dioxaspiro [4,4]nonane]
- effect on flight response ([6]; tested as a racemic mixture): interruptive or repellent
- proportion of females responding ([6]; yellow sticky card traps, Davis CA): 0.67
- trap catches, female WTB [6, 8]: ½
- trap catches, male WTB [6, 8]: ½

Reference: US20130014428A1, “METHODS OF MONITORING AND CONTROLLING THE WALNUT TWIG BEETLE, PITYOPHTHORUS JUGLANDIS” (The United States of America as Represented by the …, priority 2011, published 2013)
